In the assay the target is T1, TPM3-TRKA fusion protein (Homo sapiens, UniProt P04629).
T1 construct: The resulted chimeric proteins always retain the kinase domain of TRK proteins; TPM3 (fusion partner, N-terminal part of tropomyosin alpha-3, P06753); endogenous in cells; host or cells: KM12 colon cancer cells; the other entry of the earlier key: TPM3 (P06753, Tropomyosin alpha-3 chain)
Put plainly: TPM3-TRKA fusion protein levels in KM12 cells (Western blot). As to conditions: 16 h; TPM3-TRKA degradation in KM12 cells at 10 nM compound, category of percentage degradation; read-out: Degradation (at 10 nM). The format is cell-based. Put shortly:
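KM12 colon cancer cells were treated with DMSO or compounds at 0.1–100 nM, 0.4–30 nM or other stated concentrations for 4, 8–16 or 16 h. RIPA lysates were BCA-normalized and resolved by SDS-PAGE. TPM3-TRKA was detected by chemiluminescent Western blot, with bands quantified by densitometry.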

T1 sequence (P04629 with tags, fused parts or gaps): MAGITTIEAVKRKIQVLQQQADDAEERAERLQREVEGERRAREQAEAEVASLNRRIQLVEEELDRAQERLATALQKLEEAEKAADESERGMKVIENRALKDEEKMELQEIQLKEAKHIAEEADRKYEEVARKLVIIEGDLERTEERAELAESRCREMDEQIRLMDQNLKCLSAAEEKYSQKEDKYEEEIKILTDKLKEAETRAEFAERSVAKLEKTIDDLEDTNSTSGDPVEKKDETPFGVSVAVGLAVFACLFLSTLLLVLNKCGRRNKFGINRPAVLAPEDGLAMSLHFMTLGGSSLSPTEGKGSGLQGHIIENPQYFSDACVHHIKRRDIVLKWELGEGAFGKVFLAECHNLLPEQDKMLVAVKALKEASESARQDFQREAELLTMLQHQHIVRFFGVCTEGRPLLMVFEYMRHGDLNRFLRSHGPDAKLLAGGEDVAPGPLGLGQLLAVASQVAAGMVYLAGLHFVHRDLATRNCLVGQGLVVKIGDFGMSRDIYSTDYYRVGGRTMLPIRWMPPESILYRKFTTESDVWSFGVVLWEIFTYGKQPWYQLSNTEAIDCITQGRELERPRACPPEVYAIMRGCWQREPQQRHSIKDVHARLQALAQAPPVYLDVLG

`O=C(CN1CCN(c2cccc(-c3cnc4ccc(N5CCC[C@@H]5c5cccc(F)c5)nn34)n2)CC1)NCCOCCOCCOCCOCCOCCNc1cccc2c1C(=O)N(C1CCC(=O)NC1=O)C2=O` (stereo partly drawn) [TR-104, N-(17-((2-(2,6-dioxopiperidin-3-yl)-1,3-dioxoisoindolin-4-yl)amino)-3,6,9,12,15-pentaoxaheptadecyl)-2-(4-(6-(6-((R)-2-(3-fluorophenyl)pyrrolidin-1-yl)imidazo[1,2-b]pyridazin-3-yl)pyridin-2-yl)piperazin-1-yl)acetamide]: the percent degradation of TPM3-TRKA protein at 0.01 µM was above 80%.

Take `O=C(CN1CCN(c2cccc(-c3cnc4ccc(N5CCC[C@@H]5c5cccc(F)c5)nn34)n2)CC1)NCCOCCOCCNc1cccc2c1C(=O)N(C1CCC(=O)NC1=O)C2=O` (stereo partly drawn) [TR-105, N-(2-(2-(2-((2-(2,6-dioxopiperidin-3-yl)-1,3-dioxoisoindolin-4-yl)amino)ethoxy)ethoxy)ethyl)-2-(4-(6-(6-((R)-2-(3-fluorophenyl)pyrrolidin-1-yl)imidazo[1,2-b]pyridazin-3-yl)pyridin-2-yl)piperazin-1-yl)acetamide]: the percent degradation of TPM3-TRKA protein at 0.01 µM was above 80%.

For the compound `O=C(CN1CCN(c2cccc(-c3cnc4ccc(N5CCC[C@@H]5c5cccc(F)c5)nn34)n2)CC1)NCCCCNc1cccc2c1C(=O)N(C1CCC(=O)NC1=O)C2=O` (stereo partly drawn) [TR-107, N-(4-((2-(2,6-dioxopiperidin-3-yl)-1,3-dioxoisoindolin-4-yl)amino)butyl)-2-(4-(6-(6-((R)-2-(3-fluorophenyl)pyrrolidin-1-yl)imidazo[1,2-b]pyridazin-3-yl)pyridin-2-yl)piperazin-1-yl)acetamide], the percent degradation of TPM3-TRKA protein at 0.01 µM was above 80%.

With `O=C(CN1CCN(c2cccc(-c3cnc4ccc(N5CCC[C@@H]5c5cccc(F)c5)nn34)n2)CC1)NCCOCCOCCOCCOCCNc1cccc2c1C(=O)N(C1CCC(=O)NC1=O)C2=O` (stereo partly drawn) [TR-108, N-(14-((2-(2,6-dioxopiperidin-3-yl)-1,3-dioxoisoindolin-4-yl)amino)-3,6,9,12-tetraoxatetradecyl)-2-(4-(6-(6-((R)-2-(3-fluorophenyl)pyrrolidin-1-yl)imidazo[1,2-b]pyridazin-3-yl)pyridin-2-yl)piperazin-1-yl)acetamide], the percent degradation of TPM3-TRKA protein at 0.01 µM is above 80%.

As to `O=C(CN1CCN(c2cccc(-c3cnc4ccc(N5CCC[C@@H]5c5cccc(F)c5)nn34)n2)CC1)NCCCNc1cccc2c1C(=O)N(C1CCC(=O)NC1=O)C2=O` (stereo partly drawn) [TR-109, N-(3-((2-(2,6-dioxopiperidin-3-yl)-1,3-dioxoisoindolin-4-yl)amino)propyl)-2-(4-(6-(6-((R)-2-(3-fluorophenyl)pyrrolidin-1-yl)imidazo[1,2-b]pyridazin-3-yl)pyridin-2-yl)piperazin-1-yl)acetamide], the percent degradation of TPM3-TRKA protein at 0.01 µM was above 80%.

As for `O=C1CCC(N2C(=O)c3ccc(NCCOCCOCCC(=O)N4CCN(c5cccc(-c6cnc7ccc(N8CCC[C@@H]8c8cccc(F)c8)nn67)n5)CC4)cc3C2=O)C(=O)N1` (stereo partly drawn) [TR-113, 2-(2,6-Dioxopiperidin-3-yl)-5-((2-(2-(3-(4-(6-(6-((R)-2˜ (3-fluorophenyl)pyrrolidin-1-yl)imidazo[1,2-b]pyridazin-3-yl)pyridin-2-yl)piperazin-1-yl)-3-oxopropoxy)ethoxy)ethyl)amino) isoindoline-1,3-dione], the percent degradation of TPM3-TRKA protein at 0.01 µM is above 80%.

With `O=C1CCC(N2C(=O)c3ccc(NCCOCCOCCOCCOCCOCCC(=O)N4CCN(c5cccc(-c6cnc7ccc(N8CCC[C@@H]8c8cccc(F)c8)nn67)n5)CC4)cc3C2=O)C(=O)N1` (some centres unmarked) [TR-116], the percent degradation of TPM3-TRKA protein at 0.01 µM is above 80%.

Regarding `O=C1CCC(N2C(=O)c3ccc(NCCCCCCC(=O)N4CCN(c5cccc(-c6cnc7ccc(N8CCC[C@@H]8c8cccc(F)c8)nn67)n5)CC4)cc3C2=O)C(=O)N1` (stereo partly drawn) [TR-117, 2-(2,6-Dioxopiperidin-3-yl)-5-((7-(4-(6-(6-((R)-2-(3-fluorophenyl)pyrrolidin-1-yl)imidazo[1,2-b]pyridazin-3-yl)pyridin-2-yl)piperazin-1-yl)-7-oxoheptyl)amino) isoindoline-1,3-dione], the percent degradation of TPM3-TRKA protein at 0.01 µM is above 80%.

These data come from US12410171B2, “Tropomyosin receptor kinase (TRK) degradation compounds and methods of use” (Cullgen (Shanghai), Inc., priority 2020, dated 2025).
